Experimental data published in US20090131431A1, “Pyrazolo[3,4-b]pyridine compounds, and their use as a PDE4 inhibitors” (priority 2005, published 2009).

Each compound was assayed against T1, PDE4B (human recombinant) (Homo sapiens, UniProt Q07343) (assay: Inhibition of PDE4B activity: SPA and/or Fluorescence Polarisation (FP) assay). Conditions: one reading (n=1) or average of 2 or more readings, read-out: PDE4B pIC50 (±about 0.5) (converted).
T1 construct: made in house
T1 sequence (Q07343 1-564 isoform Q07343-2): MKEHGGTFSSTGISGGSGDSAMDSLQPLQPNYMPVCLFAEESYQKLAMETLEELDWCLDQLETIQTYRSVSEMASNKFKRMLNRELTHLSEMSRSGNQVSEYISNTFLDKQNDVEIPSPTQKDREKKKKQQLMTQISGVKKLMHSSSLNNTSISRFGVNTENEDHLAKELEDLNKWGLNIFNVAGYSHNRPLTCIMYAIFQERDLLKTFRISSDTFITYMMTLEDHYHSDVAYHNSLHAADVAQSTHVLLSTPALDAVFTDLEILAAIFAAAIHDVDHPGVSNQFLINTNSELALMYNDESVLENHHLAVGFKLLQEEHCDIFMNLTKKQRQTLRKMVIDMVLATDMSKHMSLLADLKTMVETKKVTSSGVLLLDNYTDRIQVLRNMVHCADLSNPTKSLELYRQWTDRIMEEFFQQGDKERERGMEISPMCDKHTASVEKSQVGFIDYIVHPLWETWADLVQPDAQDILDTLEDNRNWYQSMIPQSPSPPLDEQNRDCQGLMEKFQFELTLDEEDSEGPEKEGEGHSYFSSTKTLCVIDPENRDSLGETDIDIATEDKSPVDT
Format: biochemical
Method: The ability of compounds to inhibit catalytic activity at PDE4B or 4D (human recombinant), PDE3 (from bovine aorta), PDE5 (human recombinant) or PDE6 (from bovine retina) can optionally be determined by Scintillation Proximity Assay (SPA) in a 96-well format.
The enzyme concentration is adjusted so that no more than 20% hydrolysis of the substrate defined below occurs in control wells without compound, during the incubation. For the PDE3, PDE4B and PDE4D assays, [5′,8-3H]Adenosine 3′,5′-cyclic phosphate (Amersham Pharmacia Biotech, code TRK.559; or Amersham Biosciences UK Ltd, Pollards Wood, Chalfont St Giles, Buckinghamshire HP8 4SP, UK) is added to give 0.05 uCi per well and about 10 nM final concentration. […] Plates containing assay mixture, suitably approx. 100 ul volume of assay mixture, are mixed on an orbital shaker for 5 minutes and incubated at ambient temperature for 1 hour. Phosphodiesterase SPA beads (Amersham Pharmacia Biotech, code RPNQ 0150) are added (about 1 mg per well) to terminate the assay. Plates are sealed and shaken and allowed to stand at ambient temperature for 35 minutes to 1 hour (suitably 35 minutes) to allow the beads to settle. […] Curves are analysed using ActivityBase and XLfit (ID Business Solutions Limited, 2 Ocean Court, Surrey Research Park, Guildford, Surrey GU2 7QB, United Kingdom). Results are expressed as pIC50 values.
The ability of compounds to inhibit catalytic activity at PDE4B (human recombinant) or PDE4D (human recombinant) can optionally be determined by IMAP Fluorescence Polarisation (FP) assay (IMAP Explorer kit, available from Molecular Devices Corporation, Sunnydale, Calif., USA; Molecular Devices code: R8062) in 384-well format.
The IMAP FP assay is able to measure PDE activity in an homogenous, non-radioactive assay format. The FP assay uses the ability of immobilised trivalent metal cations, coated onto nanoparticles (tiny beads), to bind the phosphate group of Fl-AMP that is produced on the hydrolysis of fluorescein-labelled (Fl) cyclic adenosine mono-phosphate (Fl-cAMP) to the non-cyclic Fl-AMP form. […] Binding of Fl-AMP product to the beads (coated with the immobilised trivalent cations) slows the rotation of the bound Fl-AMP and leads to an increase in the fluorescence polarisation ratio of parallel to perpendicular light. Inhibition of the PDE reduces/inhibits this signal increase.
The enzyme level is set by experimentation so that reaction is linear throughout the incubation. Fluorescein adenosine 3′,5′-cyclic phosphate (from Molecular Devices Corporation, Molecular Devices code: R7091) is added to give about 40 nM final concentration (final assay volume usually ca. 20-40 ul, suitably ca. 20 ul). Plates are mixed on an orbital shaker for 10 seconds and incubated at ambient temperature for 40 minutes. IMAP binding reagent (as described above, from Molecular Devices Corporation, Molecular Devices code: R7207) is added (60 ul of a 1 in 400 dilution in binding buffer of the kit stock solution) to terminate the assay. Plates are allowed to stand at ambient temperature for 1 hour. The Fluorescence Polarisation (FP) ratio of parallel to perpendicular light is measured using an Analyst™ plate reader (from Molecular Devices Corporation). […] Curves are analysed using ActivityBase and XLfit (ID Business Solutions Limited, 2 Ocean Court, Surrey Research Park, Guildford, Surrey GU2 7QB, United Kingdom). Results are expressed as plC50 values.
For `CCn1ncc2c(NC3CCOCC3)c(CNC(=O)c3ccc(N4CCCC4=O)cc3)c(C)nc21` [Example 288, N-{[1-ethyl-6-methyl-4-(tetrahydro-2H-pyran-4-ylamino)-1H-pyrazolo[3,4-b]pyridin-5-yl]methyl}-4-(2-oxo-1-pyrrolidinyl)benzamide], the IC50 was 0.01 to 0.1 nM. Compound `CCOc1ncccc1C(=O)NCc1c(CC)nc2c(cnn2CC)c1NC1CCOCC1` [Example 159, N-{[1,6-diethyl-4-(tetrahydro-2H-pyran-4-ylamino)-1H-pyrazolo[3,4-b]pyridin-5-yl]methyl}-2-(ethyloxy)-3-pyridinecarboxamide] has an IC50 of 0.01 to 0.1 nM. `CCc1nc2c(cnn2CC)c(NC2CCOCC2)c1CNC(=O)c1ccc(-n2cccc2)nc1` [Example 148, N-{[1,6-diethyl-4-(tetrahydro-2H-pyran-4-ylamino)-1H-pyrazolo[3,4-b]pyridin-5-yl]methyl}-6-(1H-pyrrol-1-yl)-3-pyridinecarboxamide] showed an IC50 of 0.01 to 0.1 nM. `CCc1nc2c(cnn2CC)c(NC2CCOCC2)c1CNC(=O)c1cccc(N2CCOCC2)c1` [Example 190, N-{[1,6-diethyl-4-(tetrahydro-2H-pyran-4-ylamino)-1H-pyrazolo[3,4-b]pyridin-5-yl]methyl}-3-(4-morpholinyl)benzamide] gave an IC50 of 0.01 to 0.1 nM. Compound `CCn1ncc2c(NC3CCOCC3)c(CNC(=O)c3coc(C)n3)c(C)nc21` [Example 318, N-{[1-ethyl-6-methyl-4-(tetrahydro-2H-pyran-4-ylamino)-1H-pyrazolo[3,4-b]pyridin-5-yl]methyl}-2-methyl-1,3-oxazole-4-carboxamide] has an IC50 of 0.126 to 1 nM. `CCn1ncc2c(NC3CCN(C(N)=O)CC3)c(CNC(=O)c3ccc(NC(C)=O)c4c3OCC4)c(C)nc21` [Example 305, 4-({5-[({[4-(acetylamino)-2,3-dihydro-1-benzofuran-7-yl]carbonyl}amino)methyl]-1-ethyl-6-methyl-1H-pyrazolo[3,4-b]pyridin-4-yl}amino)-1-piperidinecarboxamide] was tested, and the IC50 was 0.01 to 0.1 nM. `CCc1nc2c(cnn2CC)c(NC2CCOCC2)c1CNC(=O)c1ccc(S(C)(=O)=O)cc1` [Example 249, N-{[1,6-diethyl-4-(tetrahydro-2H-pyran-4-ylamino)-1H-pyrazolo[3,4-b]pyridin-5-yl]methyl}-4-(methylsulfonyl)benzamide] showed an IC50 of 0.126 to 1 nM. `CCc1nc2c(cnn2CC)c(NC2CCN(C(N)=O)CC2)c1CNC(=O)c1ccc(N2CCOCC2)cc1` [Example 207, 4-({1,6-diethyl-5-[({[4-(4-morpholinyl)phenyl]carbonyl}amino)methyl]-1H-pyrazolo[3,4-b]pyridin-4-yl}amino)-1-piperidinecarboxamide] showed an IC50 of 0.01 to 0.1 nM. `CCc1nc2c(cnn2CC)c(NC2CCOCC2)c1CNC(=O)c1ccn(C)n1` [Example 238, N-{[1,6-diethyl-4-(tetrahydro-2H-pyran-4-ylamino)-1H-pyrazolo[3,4-b]pyridin-5-yl]methyl}-1-methyl-1H-pyrazole-3-carboxamide] gave an IC50 of 0.126 to 1 nM. In the case of `CCc1nc2c(cnn2CC)c(NC2CCOCC2)c1CNC(=O)c1ccccc1O` [Example 250, N-{[1,6-diethyl-4-(tetrahydro-2H-pyran-4-ylamino)-1H-pyrazolo[3,4-b]pyridin-5-yl]methyl}-2-hydroxybenzamide], the IC50 is reported as 0.01 to 0.1 nM. For `CCn1ncc2c(NC3CCOCC3)c(CNC(=O)c3cnc(C)cn3)c(C(F)(F)F)nc21` [Example 348, N-{[1-Ethyl-4-(tetrahydro-2H-pyran-4-ylamino)-6-(trifluoromethyl)-1H-pyrazolo[3,4-b]pyridin-5-yl]methyl}-5-methyl-2-pyrazinecarboxamide], the IC50 was 0.126 to 1 nM. With `CCc1nc2c(cnn2CC)c(NC2CCOCC2)c1CNC(=O)c1ccc(F)cc1` [Example 307, N-{[1,6-diethyl-4-(tetrahydro-2H-pyran-4-ylamino)-1H-pyrazolo[3,4-b]pyridin-5-yl]methyl}-4-fluorobenzamide] the IC50 was 0.126 to 1 nM. With `CCc1nc2c(cnn2CC)c(NC2CCOCC2)c1CNC(=O)c1cccc2ccccc12` [Example 192, N-{[1,6-diethyl-4-(tetrahydro-2H-pyran-4-ylamino)-1H-pyrazolo[3,4-b]pyridin-5-yl]methyl}-1-naphthalenecarboxamide] the IC50 was 0.126 to 1 nM. Work on `CCn1ncc2c(NC3CCN(C(N)=O)CC3)c(CNC(=O)c3ccc(NC(C)=O)cc3O)c(C)nc21` [Example 261, 4-({5-[({[4-(acetylamino)-2-hydroxyphenyl]carbonyl}amino)methyl]-1-ethyl-6-methyl-1H-pyrazolo[3,4-b]pyridin-4-yl}amino)-1-piperidinecarboxamide] yielded an IC50 of 0.01 to 0.1 nM. For `CCn1ncc2c(NC3CCOCC3)c(CNC(=O)c3ccc(C)nc3)c(C)nc21` [Example 337, N-{[1-ethyl-6-methyl-4-(tetrahydro-2H-pyran-4-ylamino)-1H-pyrazolo[3,4-b]pyridin-5-yl]methyl}-6-methyl-3-pyridinecarboxamide], the IC50 was 0.126 to 1 nM. For `CCc1nc2c(cnn2CC)c(NC2CCOCC2)c1CNC(=O)c1ccccc1F` [Example 232, N-{[1,6-diethyl-4-(tetrahydro-2H-pyran-4-ylamino)-1H-pyrazolo[3,4-b]pyridin-5-yl]methyl}-2-fluorobenzamide], the IC50 was 0.01 to 0.1 nM. `CCc1nc2c(cnn2CC)c(NC2CCN(C(N)=O)CC2)c1CNC(=O)c1ccc(C(C)C)cc1` [Example 208, 4-({1,6-diethyl-5-[({[4-(1-methylethyl)phenyl]carbonyl}amino)methyl]-1H-pyrazolo[3,4-b]pyridin-4-yl}amino)-1-piperidinecarboxamide] was tested, and the IC50 was 0.01 to 0.1 nM. Compound `CCn1ncc2c(NC3CCOCC3)c(CNC(=O)c3csc(C(F)(F)F)n3)c(C)nc21` [Example 319, N-{[1-ethyl-6-methyl-4-(tetrahydro-2H-pyran-4-ylamino)-1H-pyrazolo[3,4-b]pyridin-5-yl]methyl}-2-(trifluoromethyl)-1,3-thiazole-4-carboxamide] has an IC50 of 0.126 to 1 nM. In the case of `CCc1nc2c(cnn2CC)c(NC2CCOCC2)c1CN1Cc2ccc(F)cc2C1=O` [Example 315, 2-{[1,6-diethyl-4-(tetrahydro-2H-pyran-4-ylamino)-1H-pyrazolo[3,4-b]pyridin-5-yl]methyl}-6-fluoro-2,3-dihydro-1H-isoindol-1-one], the IC50 is reported as 0.01 to 0.1 nM. `CCc1nc2c(cnn2CC)c(NC2CCOCC2)c1CNS(=O)(=O)Cc1ccccc1` [Example 169, N-{[1,6-diethyl-4-(tetrahydro-2H-pyran-4-ylamino)-1H-pyrazolo[3,4-b]pyridin-5-yl]methyl}-1-phenylmethanesulfonamide] showed an IC50 of 0.126 to 1 nM. `CCc1nc2c(cnn2CC)c(NC2CCOCC2)c1CNC(=O)c1ccc2c(=O)[nH][nH]c2c1` [Example 257, N-{[1,6-diethyl-4-(tetrahydro-2H-pyran-4-ylamino)-1H-pyrazolo[3,4-b]pyridin-5-yl]methyl}-3-oxo-2,3-dihydro-1H-indazole-6-carboxamide] was tested, and the IC50 was 0.01 to 0.1 nM. For `CCn1ncc2c(NC3CCOCC3)c(CN3Cc4occc4C3=O)c(C)nc21` [Example 301, 5-{[1-ethyl-6-methyl-4-(tetrahydro-2H-pyran-4-ylamino)-1H-pyrazolo[3,4-b]pyridin-5-yl]methyl}-5,6-dihydro-4H-furo[2,3-c]pyrrol-4-one], the IC50 was 0.126 to 1 nM. With `CCn1ncc2c(NC3CCOCC3)c(CNC(=O)c3ccc(NC(C)=O)cc3O)c(C)nc21` [Example 276, 4-(acetylamino)-N-{[1-ethyl-6-methyl-4-(tetrahydro-2H-pyran-4-ylamino)-1H-pyrazolo[3,4-b]pyridin-5-yl]methyl}-2-hydroxybenzamide] the IC50 was 0.01 to 0.1 nM.
